In ChEMBL document CHEMBL1201862, “PubChem BioAssay data set” (2004):
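All cell lines were grown in 96-well plates and treated with compound for 48 hours. Here, GI50 denotes the concentration required for 50% inhibition of growth.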 Active and inactive are the calls of the source. Rule as the data show it: active = GI50 up to about 1.1 µM and inactive = higher.

What was measured:
Assay in all cases: NCI-60 cell line screen, 48 h
[1] = tested on: 786-0
[2] = tested on: DU-145
[3] = tested on: EKVX
[4] = tested on: HCT-116
[5] = tested on: HCT-15
[6] = tested on: HL-60
[7] = tested on: HOP-62
[8] = tested on: MCF7
[9] = tested on: MDA-MB-231
[10] = tested on: MDA-MB-435
[11] = tested on: Malme-3M
[12] = tested on: NCI-H226
[13] = tested on: NCI-H23
[14] = tested on: RPMI-8226
[15] = tested on: RXF 393
[16] = tested on: SF-268
[17] = tested on: SF-295
[18] = tested on: SK-OV-3
[19] = tested on: SNB-19
[20] = tested on: SW-620

| Compound | GI50 [1] | GI50 [2] | GI50 [3] | GI50 [4] | GI50 [5] | GI50 [6] | GI50 [7] | GI50 [8] | GI50 [9] | GI50 [10] | GI50 [11] | GI50 [12] | GI50 [13] | GI50 [14] | GI50 [15] | GI50 [16] | GI50 [17] | GI50 [18] | GI50 [19] | GI50 [20] |
| --- | --- | --- | --- | --- | --- | --- | --- | --- | --- | --- | --- | --- | --- | --- | --- | --- | --- | --- | --- | --- |
| CC1=C(O)C(O)=C(C2=C(O)C(O)=C(C)C(=O)C2=O)C(=O)C1=O | 41.7 µM (inactive) | 31.3 µM (inactive) | > 100 µM (inactive) | 46.7 µM (inactive) | > 100 µM | 42.9 µM (inactive) | 44 µM (inactive) | 45.3 µM (inactive) | 31.8 µM (inactive) | 37.8 µM (inactive) | 20.8 µM (inactive) | 35.2 µM (inactive) | 40.7 µM (inactive) | 34.3 µM (inactive) | 26.7 µM (inactive) | 56.9 µM (inactive) | 31.3 µM (inactive) | 37.2 µM (inactive) | 50.5 µM (inactive) | 68.9 µM (inactive) |
| CCN(CC)Cc1cc(Nc2c3ccccc3nc3c4ccccc4n(C)c23)cc(CN(CC)CC)c1O | 3.48 µM (inactive) | 8.67 µM (inactive) | 4.59 µM (inactive) | 2.89 µM (inactive) | 4.1 µM | 2.31 µM (inactive) | 4.4 µM (inactive) | 3.61 µM (inactive) | 3.03 µM (inactive) | 3.01 µM (inactive) | 2.74 µM (inactive) | 11.2 µM (inactive) | 9.64 µM (inactive) | 2.1 µM (inactive) | 3.16 µM (inactive) | 6.78 µM (inactive) | 5.35 µM (inactive) | 14.4 µM (inactive) | 12.2 µM (inactive) | 3.12 µM (inactive) |
| Cc1nn(C(=O)c2ccc(Cl)cc2)c2c1C(c1ccccc1)SC(=N)N2 (stereo not given) | > 10 µM (inactive) | > 10 µM (inactive) | > 10 µM (inactive) | > 10 µM (inactive) | > 10 µM | > 10 µM (inactive) | > 10 µM (inactive) | > 10 µM (inactive) | > 10 µM (inactive) | > 10 µM (inactive) | > 10 µM (inactive) | > 10 µM (inactive) | > 10 µM (inactive) | > 10 µM (inactive) | > 10 µM (inactive) | > 10 µM (inactive) | > 10 µM (inactive) | > 10 µM (inactive) | > 10 µM (inactive) | > 10 µM (inactive) |
| O=C(CC(=O)N(C(=O)/C=C\c1ccccc1)c1ccc(Cl)cc1)N1N=C(c2ccccc2)C(/N=N/c2cccc([N+](=O)[O-])c2)C1=O (stereo not given) | 3.35 µM (inactive) | 13.3 µM (inactive) | 16.9 µM (inactive) | 3.37 µM (inactive) | 1.36 µM | 2.84 µM (inactive) | 11.9 µM (inactive) | 3.45 µM (inactive) | 0.971 µM (active) | 9.82 µM (inactive) | 11.3 µM (inactive) | 13.2 µM (inactive) | 8.28 µM (inactive) | 3.35 µM (inactive) | 10.3 µM (inactive) | 4.23 µM (inactive) | 5.25 µM (inactive) | 6.32 µM (inactive) | 13.9 µM (inactive) | 2.32 µM (inactive) |
| COC1/C=C\C=C(/C)C(=O)NC2=CC(=O)C(NCCCl)=C(CC(C)CC(OC)C(O)C(C)/C=C(/C)C1OC(N)=O)C2=O (stereo not given) | 0.323 µM (active) | 0.569 µM (active) | 0.592 µM (active) | 0.0489 µM (active) | 0.301 µM | 0.0281 µM (active) | 0.339 µM (active) | 0.0333 µM (active) | 2 µM (inactive) | 0.0526 µM (active) | 0.0345 µM (active) | 0.729 µM (active) | 0.0715 µM (active) | 0.0977 µM (active) | 0.0174 µM (active) | 0.351 µM (active) | 0.743 µM (active) | 0.117 µM (active) | 0.927 µM (active) | 0.0161 µM (active) |
| c1ccc2c(c1)ccn1ccc3c4ccccc4nc-3c21 | 0.178 µM (active) | 0.351 µM (active) | 0.214 µM (active) | 0.0935 µM (active) | 0.305 µM | 0.297 µM (active) | 0.411 µM (active) | 0.229 µM (active) | 0.322 µM (active) | 0.362 µM (active) | 0.644 µM (active) | 0.31 µM (active) | 0.289 µM (active) | 0.195 µM (active) | 0.439 µM (active) | 0.536 µM (active) | 0.426 µM (active) | 0.566 µM (active) | 0.776 µM (active) | 0.202 µM (active) |
| CC1=Nc2ccccc2OC(C)=C1/N=N/c1ccc2[nH]c(C)nc2c1 | > 100 µM (inactive) | > 100 µM (inactive) | > 100 µM (inactive) | > 100 µM (inactive) | > 100 µM | > 100 µM (inactive) | > 100 µM (inactive) | 45.8 µM (inactive) | > 100 µM (inactive) | > 100 µM (inactive) | > 100 µM (inactive) | > 100 µM (inactive) | > 100 µM (inactive) | > 100 µM (inactive) | 56.1 µM (inactive) | > 100 µM (inactive) | > 100 µM (inactive) | > 100 µM (inactive) | > 100 µM (inactive) | > 100 µM (inactive) |
| CC#CC#C/C=C1/O[C@]2(CCC(OC(C)=O)CO2)[C@@H]2O[C@H]12 (stereo not given in full) | 18.2 µM (inactive) | 30.5 µM (inactive) | 31.5 µM (inactive) | 17.8 µM (inactive) | 16.6 µM | 18.4 µM (inactive) | 37.2 µM (inactive) | 26.5 µM (inactive) | 23 µM (inactive) | 22.1 µM (inactive) | 14.7 µM (inactive) | 20.4 µM (inactive) | 19.4 µM (inactive) | 27.2 µM (inactive) | 18.5 µM (inactive) | 27.8 µM (inactive) | 35.4 µM (inactive) | 51.9 µM (inactive) | 27.7 µM (inactive) | 25.7 µM (inactive) |
| CC(=O)Nc1ccccc1SCCSSCCSc1ccccc1NC(C)=O | 28.4 µM (inactive) | 25.6 µM (inactive) | 43.3 µM (inactive) | 36.2 µM (inactive) | 20.7 µM | 17.4 µM (inactive) | 58.6 µM (inactive) | 38.9 µM (inactive) | 32.3 µM (inactive) | 19.5 µM (inactive) | 34.7 µM (inactive) | 31.1 µM (inactive) | 30.1 µM (inactive) | 17.9 µM (inactive) | 34.2 µM (inactive) | 38.2 µM (inactive) | 26.7 µM (inactive) | 27.8 µM (inactive) | 17.7 µM (inactive) | 39.3 µM (inactive) |
| c1ccc(/C(=N\Nc2nc3ccccc3s2)c2ccccn2)cc1 | 2.36 µM (inactive) | 3.75 µM (inactive) | 0.41 µM (active) | 1.88 µM (inactive) | 0.622 µM | 0.792 µM (active) | 6.47 µM (inactive) | 0.317 µM (active) | 4.74 µM (inactive) | 5.68 µM (inactive) | 0.649 µM (active) | 3.87 µM (inactive) | 6.82 µM (inactive) | 1.77 µM (inactive) | 4.3 µM (inactive) | 3.13 µM (inactive) | 5.19 µM (inactive) | 8.28 µM (inactive) | 5.77 µM (inactive) | 3.18 µM (inactive) |
| O=C1NC(=O)C(F)(n2cc(F)c(=O)[nH]c2=O)C(O)N1 (stereo not given) | > 10 µM (inactive) | > 10 µM (inactive) | > 10 µM (inactive) | > 10 µM (inactive) | > 10 µM | > 10 µM (inactive) | > 10 µM (inactive) | > 10 µM (inactive) | > 10 µM (inactive) | > 10 µM (inactive) | > 10 µM (inactive) | > 10 µM (inactive) | > 10 µM (inactive) | > 10 µM (inactive) | > 10 µM (inactive) | > 10 µM (inactive) | > 10 µM (inactive) | > 10 µM (inactive) | > 10 µM (inactive) | > 10 µM (inactive) |
| Nc1nc(SCC(=O)c2ccccc2)nc2nc3c(c(-c4ccccc4)c12)CCCC3 | 20.6 µM (inactive) | > 100 µM (inactive) | 63.4 µM (inactive) | 30.5 µM (inactive) | > 100 µM | > 100 µM (inactive) | 41.9 µM (inactive) | 47.8 µM (inactive) | 19.1 µM (inactive) | 32.6 µM (inactive) | 52.4 µM (inactive) | 18.1 µM (inactive) | 76.2 µM (inactive) | > 100 µM (inactive) | 17.7 µM (inactive) | 18.4 µM (inactive) | > 10 µM (inactive) | 4.71 µM (inactive) | 49.9 µM (inactive) | > 10 µM (inactive) |
| CC(C)(C)OC(=O)NCCCNC1(c2cc3ccccc3s2)CCCCC1 | 14.9 µM (inactive) | 16.9 µM (inactive) | 14 µM (inactive) | 12 µM (inactive) | 14.9 µM | 10.5 µM (inactive) | 14.4 µM (inactive) | 15.9 µM (inactive) | 17.6 µM (inactive) | 14.7 µM (inactive) | 15.9 µM (inactive) | 29 µM (inactive) | 13 µM (inactive) | 3.84 µM (inactive) | 14.8 µM (inactive) | 16.7 µM (inactive) | 14.8 µM (inactive) | 13.2 µM (inactive) | 13.6 µM (inactive) | 15.5 µM (inactive) |
| C/C(=N\Nc1nc2ccccc2o1)c1cc(C)ncn1 | < 0.0275 µM (active) | 0.171 µM (active) | < 0.0153 µM (active) | < 0.0191 µM (active) | 0.043 µM | < 0.01 µM (active) | 0.11 µM (active) | 0.0212 µM (active) | < 0.0203 µM (active) | 0.319 µM (active) | 0.0327 µM (active) | < 0.0142 µM (active) | 0.102 µM (active) | 0.0306 µM (active) | 1.34 µM (inactive) | 0.031 µM (active) | 0.0745 µM (active) | 0.0675 µM (active) | 0.405 µM (active) | < 0.0201 µM (active) |
